Results from PMC9099121, “Population pharmacokinetic and exposure‐response analyses from ALTA‐1L: Model‐based analyses supporting the brigatinib dose in ALK‐positive NSCLC” (Clinical and Translational Science, 2022).

Experiments:
ALK+ NSCLC = test: Exposure-ORR/iORR logistic regression, ALTA-1L; type: in vivo, human
Source text: The exposure‐efficacy analyses related reported efficacy outcomes (blinded IRC [BIRC]‐assessed PFS, ORR, and iORR) to individual brigatinib exposures predicted using individual estimated PK parameters from the population PK model. Model‐based estimates of CL/F and actual dosing history were used to derive exposure metrics of interest. Several exposure metrics were considered, including both static and dynamic area under the concentration‐time curve (AUC) estimates (Methods S1).
For ORR and iORR, each patient was classified as a responder (i.e., achieving confirmed complete or partial systemic ORR or iORR response) or a nonresponder. Relationships between ORR and iORR and brigatinib exposure were analyzed using two static exposure metrics: time‐averaged AUC between the last two disease assessment scans preceding best confirmed response and time‐averaged AUC until best confirmed response (ORR or iORR). Exposure–clinical response relationships were characterized by logistic regression models. Predicted logistic regression curve and observed response rate in each brigatinib exposure quartile or tertile (along with associated 95% CIs) were plotted.
Time averaged AUC until best confirmed response (ORR or iORR)= Cumulative dose to best confirmed systemic ORR or intracranial iORR responseOral brigatinib clearance/ (days to best confirmed systemic or intracranial response)
Static metrics of time-averaged exposure between the last two disease assessment scans preceding PFS, ORR, or iORR, or censoring (refer to 2)

[1] = in ALTA and ALTA-1L; cited from earlier work

## COc1cc(N2CCC(N3CCN(C)CC3)CC2)ccc1Nc1ncc(Cl)c(Nc2ccccc2P(C)(C)=O)n1 [brigatinib]
ALK+ NSCLC; 5th exposure percentile following 180 mg dosing
  Estimated probability of iORR: 0.58
ALK+ NSCLC; 50th (median) exposure percentile following 180 mg dosing
  Estimated probability of iORR: 0.83
ALK+ NSCLC; 50th (median) exposure percentile following 180 mg dosing, listed as Brigatinib
  Estimated probability of iORR: 0.83 (0.58–0.99)
ALK+ NSCLC; 95th exposure percentile following 180 mg dosing
  Estimated probability of iORR: 0.99
ALK+ NSCLC; time-averaged AUC between the last two disease assessments preceding best confirmed intracranial response, 95% CI: 1.01–1.28, p = 0.049, n = 42
  Odds ratio for probability of achieving iORR versus exposure: 1.13
ALK+ NSCLC; time-averaged AUC between the last two disease assessments preceding best confirmed objective response, 95% CI: 0.93–1.01, p = 0.108
  Odds ratio for probability of achieving ORR versus exposure: 0.97
ALK+ NSCLC; time-averaged AUC until the first best confirmed response, p = 0.13
  Odds ratio for probability of achieving ORR versus exposure: 0.97 [0.94–1.01]
ALK+ NSCLC; time-averaged AUC until the first best confirmed response, p = 0.15
  Odds ratio for probability of iORR versus exposure: 1.09 [0.98–1.23]
[1]
  Incidence of any-grade AEs of elevated amylase: 15% to 18
